# Source: the supplement of paper PMC12420376
# Key:
# KURAMOCHI = test: drug sensitivity score (DSS2) on cancer cell count; higher = more sensitive; extreme values may be limits of the assay; settings: 72 h
# Procedure, shortened: (§1)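 Cancer cell counts came from 10× images (4 fields) of fixed cells immunostained for CK8/18 with Hoechst. The ovarian cancer cells had been grown alone or in 1:1 direct co-culture with lung or skin fibroblasts on 384-well plates pre-spotted acoustically with 528 approved and investigational compounds at 5 concentrations, then treated for 72 h. Breeze was used to derive a drug sensitivity score from logistic fits of the data.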
# OVCAR8 = test: as above; settings: 72 h
# Procedure, shortened: as §1
# [1] = co-cultured fibroblast: BJHTERT
# [2] = co-cultured fibroblast: none (monoculture)
structure (smiles),measurement,setting,value
Cc1cccc(-c2[nH]c(CNc3ccccc3F)nc2-c2ccc3ncnn3c2)n1 [TEW-7197],drug sensitivity score,KURAMOCHI; [1],0 DSS
same,drug sensitivity score,KURAMOCHI; co-cultured fibroblast: WI38,0 DSS
same,drug sensitivity score,KURAMOCHI; [2],0 DSS
same,drug sensitivity score,OVCAR8; [1],11.2 DSS
same,drug sensitivity score,OVCAR8; co-cultured fibroblast: WI38,16.2 DSS
same,drug sensitivity score,OVCAR8; [2],4.2 DSS
CC(C)Oc1ccc(-c2nn([C@@H](C)c3oc4ccc(F)cc4c(=O)c3-c3cccc(F)c3)c3ncnc(N)c23)cc1F [TGR-1202],drug sensitivity score,KURAMOCHI; [1],0 DSS
same,drug sensitivity score,KURAMOCHI; co-cultured fibroblast: WI38,0 DSS
same,drug sensitivity score,KURAMOCHI; [2],0 DSS
same,drug sensitivity score,OVCAR8; [1],0 DSS
same,drug sensitivity score,OVCAR8; co-cultured fibroblast: WI38,0 DSS
same,drug sensitivity score,OVCAR8; [2],0 DSS
Cc1cc(C(C)Nc2ccccc2)c2nc(N3CCOCC3)cc(=O)n2c1 (stereo not drawn) [TGX-221],drug sensitivity score,KURAMOCHI; [1],7.7 DSS
same,drug sensitivity score,KURAMOCHI; co-cultured fibroblast: WI38,0 DSS
same,drug sensitivity score,KURAMOCHI; [2],4 DSS
same,drug sensitivity score,OVCAR8; [1],8.5 DSS
same,drug sensitivity score,OVCAR8; co-cultured fibroblast: WI38,7.2 DSS
same,drug sensitivity score,OVCAR8; [2],0 DSS
Nc1nc(NC2CC2)cc(-c2cccc(Cl)c2Cl)n1 [TH588],drug sensitivity score,KURAMOCHI; [1],6 DSS
same,drug sensitivity score,KURAMOCHI; co-cultured fibroblast: WI38,6.7 DSS
same,drug sensitivity score,KURAMOCHI; [2],6.5 DSS
same,drug sensitivity score,OVCAR8; [1],7.4 DSS
same,drug sensitivity score,OVCAR8; co-cultured fibroblast: WI38,4.5 DSS
same,drug sensitivity score,OVCAR8; [2],3.3 DSS
Clc1ccccc1C(c1ccccc1)(c1ccccc1)n1cccn1 [TRAM-34],drug sensitivity score,KURAMOCHI; [1],0 DSS
same,drug sensitivity score,KURAMOCHI; co-cultured fibroblast: WI38,0 DSS
same,drug sensitivity score,KURAMOCHI; [2],0 DSS
same,drug sensitivity score,OVCAR8; [1],0 DSS
same,drug sensitivity score,OVCAR8; co-cultured fibroblast: WI38,0 DSS
same,drug sensitivity score,OVCAR8; [2],0 DSS
CC(=O)Nc1ccc(C(=O)Nc2ccccc2N)cc1 [Tacedinaline],drug sensitivity score,KURAMOCHI; [1],0 DSS
same,drug sensitivity score,KURAMOCHI; co-cultured fibroblast: WI38,2.6 DSS
same,drug sensitivity score,KURAMOCHI; [2],3.7 DSS
same,drug sensitivity score,OVCAR8; [1],0 DSS
same,drug sensitivity score,OVCAR8; co-cultured fibroblast: WI38,0 DSS
same,drug sensitivity score,OVCAR8; [2],1.8 DSS
C=CC[C@@H]1/C=C(\C)C[C@H](C)C[C@H](OC)[C@H]2O[C@@](O)(C(=O)C(=O)N3CCCC[C@H]3C(=O)O[C@H](/C(C)=C/[C@@H]3CC[C@@H](O)[C@H](OC)C3)[C@H](C)[C@@H](O)CC1=O)[C@H](C)C[C@@H]2OC [Tacrolimus],drug sensitivity score,KURAMOCHI; [1],1 DSS
same,drug sensitivity score,KURAMOCHI; co-cultured fibroblast: WI38,1 DSS
same,drug sensitivity score,KURAMOCHI; [2],18.5 DSS
same,drug sensitivity score,OVCAR8; [1],0.8 DSS
same,drug sensitivity score,OVCAR8; co-cultured fibroblast: WI38,0 DSS
same,drug sensitivity score,OVCAR8; [2],3.1 DSS
CN(C(=O)c1ccc(F)cc1C(F)(F)F)C1CCN(c2nnc(-c3ccnn3C)c3ccccc23)CC1 [Taladegib],drug sensitivity score,KURAMOCHI; [1],0 DSS
same,drug sensitivity score,KURAMOCHI; co-cultured fibroblast: WI38,0 DSS
same,drug sensitivity score,KURAMOCHI; [2],0 DSS
same,drug sensitivity score,OVCAR8; [1],0 DSS
same,drug sensitivity score,OVCAR8; co-cultured fibroblast: WI38,0 DSS
same,drug sensitivity score,OVCAR8; [2],0 DSS
Cn1ncnc1[C@H]1c2n[nH]c(=O)c3cc(F)cc(c23)N[C@@H]1c1ccc(F)cc1 [Talazoparib],drug sensitivity score,KURAMOCHI; [1],10.5 DSS
same,drug sensitivity score,KURAMOCHI; co-cultured fibroblast: WI38,15 DSS
same,drug sensitivity score,KURAMOCHI; [2],16.3 DSS
same,drug sensitivity score,OVCAR8; [1],19.5 DSS
same,drug sensitivity score,OVCAR8; co-cultured fibroblast: WI38,15.3 DSS
same,drug sensitivity score,OVCAR8; [2],15.8 DSS
C[C@@H]1CN(Cc2ccc(F)cc2)[C@@H](C)CN1C(=O)c1cc2c(C(=O)C(=O)N(C)C)cn(C)c2cc1Cl [Talmapimod],drug sensitivity score,KURAMOCHI; [1],1.2 DSS
same,drug sensitivity score,KURAMOCHI; co-cultured fibroblast: WI38,0 DSS
same,drug sensitivity score,KURAMOCHI; [2],0 DSS
same,drug sensitivity score,OVCAR8; [1],2.8 DSS
same,drug sensitivity score,OVCAR8; co-cultured fibroblast: WI38,0 DSS
same,drug sensitivity score,OVCAR8; [2],1.4 DSS
COc1cc(Nc2ncc(F)c(Nc3ccc4c(n3)NC(=O)C(C)(C)O4)n2)cc(OC)c1OC [Tamatinib],drug sensitivity score,KURAMOCHI; [1],0.6 DSS
same,drug sensitivity score,KURAMOCHI; co-cultured fibroblast: WI38,3.7 DSS
same,drug sensitivity score,KURAMOCHI; [2],6 DSS
same,drug sensitivity score,OVCAR8; [1],0 DSS
same,drug sensitivity score,OVCAR8; co-cultured fibroblast: WI38,4.3 DSS
same,drug sensitivity score,OVCAR8; [2],0.9 DSS
CC/C(=C(\c1ccccc1)c1ccc(OCCN(C)C)cc1)c1ccccc1 [Tamoxifen],drug sensitivity score,KURAMOCHI; [1],1.3 DSS
same,drug sensitivity score,KURAMOCHI; co-cultured fibroblast: WI38,1.3 DSS
same,drug sensitivity score,KURAMOCHI; [2],0 DSS
same,drug sensitivity score,OVCAR8; [1],3.3 DSS
same,drug sensitivity score,OVCAR8; co-cultured fibroblast: WI38,0 DSS
same,drug sensitivity score,OVCAR8; [2],1 DSS
COc1cc2c(N3CCN(C(=O)Nc4ccc(OC(C)C)cc4)CC3)ncnc2cc1OCCCN1CCCCC1 [Tandutinib],drug sensitivity score,KURAMOCHI; [1],0 DSS
same,drug sensitivity score,KURAMOCHI; co-cultured fibroblast: WI38,0 DSS
same,drug sensitivity score,KURAMOCHI; [2],0 DSS
same,drug sensitivity score,OVCAR8; [1],0 DSS
same,drug sensitivity score,OVCAR8; co-cultured fibroblast: WI38,0 DSS
same,drug sensitivity score,OVCAR8; [2],0 DSS
